Test results published in patent US10100064B2, “Purine inhibitors of human phosphatidylinositol 3-kinase delta” (Merck Sharp & Dohme Corp., priority 2014, dated 2018).

Tests used:
PI3Kdelta = target: T1, PI3Kdelta (Homo sapiens, UniProt O00329); experiment: HTRF PI3K biochemical assay, delta isoform; details: 0.3 nM enzyme, 100 uM ATP, 5 uM PIP2, form screened (Neutral or TFA salt) given per compound
T1 construct: purchased Upstate; Millipore 14-604
How it was run: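 PI3Kδ at 0.3 nM with 100 uM ATP and 5 uM PIP2, 10-point 3-fold dilutions, 15 min enzyme–compound pre-incubation, then 1 h reaction at room temperature. PIP3 formation detected by HTRF displacement of biotin-PIP3 from GST-GRP1-PH (665/620 nm ratio). IC50 corrected using a PIP3 standard curve.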

PI3Kalpha = target: T2, PI3Kalpha (Homo sapiens, UniProt P42336); experiment: HTRF PI3K biochemical assay, alpha isoform (selectivity versus delta); details: relative ratio PI3K-alpha IC50 value / PI3K-delta IC50 value
T2 construct: purchased Upstate; Millipore 14-602
How it was run: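 Recombinant PI3Kα (0.5 nM) pre-incubated 15 min with compound, then reacted 1 h at room temperature with 5 μM PIP2 and 100 μM ATP. After EDTA stop, PIP3 measured by HTRF displacement of biotin-PIP3 from GST-GRP1 PH domain (665/620 nm). 10-point dose response; IC50 corrected using a PIP3 standard curve.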

T2 sequence (P42336 whole entry, canonical isoform): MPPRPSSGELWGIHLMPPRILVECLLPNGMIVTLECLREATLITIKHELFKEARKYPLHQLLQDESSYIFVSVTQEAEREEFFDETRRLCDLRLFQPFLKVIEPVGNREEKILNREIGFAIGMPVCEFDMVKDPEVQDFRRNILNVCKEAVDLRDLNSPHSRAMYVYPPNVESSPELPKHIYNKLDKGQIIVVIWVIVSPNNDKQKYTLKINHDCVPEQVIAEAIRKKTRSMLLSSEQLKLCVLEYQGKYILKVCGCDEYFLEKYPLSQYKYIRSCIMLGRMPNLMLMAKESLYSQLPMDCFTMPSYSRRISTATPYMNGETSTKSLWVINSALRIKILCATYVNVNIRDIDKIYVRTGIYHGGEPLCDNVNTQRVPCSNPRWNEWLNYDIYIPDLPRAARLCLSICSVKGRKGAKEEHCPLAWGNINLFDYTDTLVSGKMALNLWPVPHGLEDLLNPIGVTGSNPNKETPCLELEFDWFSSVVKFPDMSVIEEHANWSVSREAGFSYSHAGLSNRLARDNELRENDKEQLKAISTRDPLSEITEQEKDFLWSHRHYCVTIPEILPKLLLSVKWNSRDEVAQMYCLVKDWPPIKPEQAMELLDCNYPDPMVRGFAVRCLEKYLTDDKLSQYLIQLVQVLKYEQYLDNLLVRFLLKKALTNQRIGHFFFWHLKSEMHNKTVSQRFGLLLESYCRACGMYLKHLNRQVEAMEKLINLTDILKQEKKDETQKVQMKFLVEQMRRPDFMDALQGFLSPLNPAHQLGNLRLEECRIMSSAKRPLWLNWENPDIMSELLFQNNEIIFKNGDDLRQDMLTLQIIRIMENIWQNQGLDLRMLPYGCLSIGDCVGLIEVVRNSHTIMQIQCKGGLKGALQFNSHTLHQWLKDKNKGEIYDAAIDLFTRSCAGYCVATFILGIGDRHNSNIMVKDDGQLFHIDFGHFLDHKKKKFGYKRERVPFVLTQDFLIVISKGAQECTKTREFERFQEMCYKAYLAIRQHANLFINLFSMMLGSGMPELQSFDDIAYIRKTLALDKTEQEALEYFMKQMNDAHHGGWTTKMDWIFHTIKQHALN
T2 sequence (P27986 whole entry partner, canonical isoform): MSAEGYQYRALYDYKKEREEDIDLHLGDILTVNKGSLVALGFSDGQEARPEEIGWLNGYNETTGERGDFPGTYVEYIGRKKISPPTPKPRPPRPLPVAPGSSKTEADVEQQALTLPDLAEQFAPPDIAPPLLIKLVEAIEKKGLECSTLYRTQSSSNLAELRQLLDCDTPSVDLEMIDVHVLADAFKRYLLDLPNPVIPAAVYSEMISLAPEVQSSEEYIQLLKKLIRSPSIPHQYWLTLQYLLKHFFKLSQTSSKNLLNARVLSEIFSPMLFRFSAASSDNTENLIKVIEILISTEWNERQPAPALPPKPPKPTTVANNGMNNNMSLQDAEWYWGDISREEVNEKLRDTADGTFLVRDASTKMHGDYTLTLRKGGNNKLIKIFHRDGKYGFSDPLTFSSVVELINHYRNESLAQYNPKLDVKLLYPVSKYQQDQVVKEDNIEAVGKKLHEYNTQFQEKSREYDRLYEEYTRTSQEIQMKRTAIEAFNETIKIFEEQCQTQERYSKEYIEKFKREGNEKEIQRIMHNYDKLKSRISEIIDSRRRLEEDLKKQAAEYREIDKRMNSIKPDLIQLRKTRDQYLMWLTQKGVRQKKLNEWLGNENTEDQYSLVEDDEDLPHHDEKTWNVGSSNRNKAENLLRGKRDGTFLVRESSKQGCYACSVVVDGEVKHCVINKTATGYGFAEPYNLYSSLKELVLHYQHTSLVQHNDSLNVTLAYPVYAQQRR
T1 sequence (O00329 whole entry, canonical isoform): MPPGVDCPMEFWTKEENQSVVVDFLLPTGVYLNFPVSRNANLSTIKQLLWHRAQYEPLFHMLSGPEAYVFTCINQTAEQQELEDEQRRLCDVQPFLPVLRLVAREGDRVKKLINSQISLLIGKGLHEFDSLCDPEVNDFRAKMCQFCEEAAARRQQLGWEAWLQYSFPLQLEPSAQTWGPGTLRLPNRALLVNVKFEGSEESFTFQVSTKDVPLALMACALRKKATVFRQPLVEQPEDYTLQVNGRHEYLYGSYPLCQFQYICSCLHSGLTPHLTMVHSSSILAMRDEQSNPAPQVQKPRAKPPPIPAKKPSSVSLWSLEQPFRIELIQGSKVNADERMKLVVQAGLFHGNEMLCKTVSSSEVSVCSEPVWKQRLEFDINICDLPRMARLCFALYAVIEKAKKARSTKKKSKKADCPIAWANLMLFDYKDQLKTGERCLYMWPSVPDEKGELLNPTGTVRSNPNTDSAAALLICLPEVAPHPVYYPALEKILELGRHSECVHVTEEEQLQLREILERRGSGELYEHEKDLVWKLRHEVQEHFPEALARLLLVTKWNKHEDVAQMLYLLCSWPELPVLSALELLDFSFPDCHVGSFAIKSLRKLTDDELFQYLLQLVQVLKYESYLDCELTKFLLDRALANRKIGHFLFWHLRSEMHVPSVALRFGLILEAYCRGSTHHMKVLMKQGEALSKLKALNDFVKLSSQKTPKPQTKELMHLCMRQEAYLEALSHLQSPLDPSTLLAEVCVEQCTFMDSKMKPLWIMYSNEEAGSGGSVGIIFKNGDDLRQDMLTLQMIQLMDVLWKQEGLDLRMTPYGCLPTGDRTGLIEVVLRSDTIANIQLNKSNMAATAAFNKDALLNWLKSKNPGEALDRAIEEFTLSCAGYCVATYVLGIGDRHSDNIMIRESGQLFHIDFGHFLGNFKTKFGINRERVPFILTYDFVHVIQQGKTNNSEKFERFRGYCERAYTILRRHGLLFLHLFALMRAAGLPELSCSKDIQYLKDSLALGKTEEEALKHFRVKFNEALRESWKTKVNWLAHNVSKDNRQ
T1 sequence (P27986 whole entry partner, canonical isoform): as the sequence (P27986 whole entry partner, canonical isoform) above

| SMILES | IC50 (PI3Kdelta) [nM] | Selectivity versus PI3Kalpha (PI3Kalpha) |
| --- | --- | --- |
| CCn1c(-c2cnc(C)nc2)nc2c(OC3CCc4nnc(C(C)C)n4C3)ncnc21 (single isomer, unassigned) [Compound 1-33, (S or R)-9-ethyl-6-{[3-(1-methylethyl)-5,6,7,8-tetrahydro[1,2,4]triazolo[4,3-a]pyridin-6-yl]oxy}-8-(2-methylpyrimidin-5-yl)-9H-purine] | 35 | >10 |
| CCn1c(-c2ccc(C(F)(F)F)cc2)nc2c(NC3CCc4nnc(C5CC5)n4C3)ncnc21 (single isomer, unassigned) [Compound 1-29, (S or R)-N-(3-cyclopropyl-5,6,7,8-tetrahydro[1,2,4]triazolo[4,3-a]pyridin-6-yl)-9-ethyl-8-[4-(trifluoromethyl)phenyl]-9H-purin-6-amine] | 49 | >10 |
| CCn1c(-c2cnc(C)nc2)nc2c(OC3CCc4nnc(C5CC5)n4C3)ncnc21 (single isomer, unassigned) [Compound 1-31, (S or R)-6-{[3-cyclopropyl-5,6,7,8-tetrahydro[1,2,4]triazolo[4,3-a]pyridin-6-yl]oxy}-9-ethyl-8-(2-methylpyrimidin-5-yl)-9H-purine] | 220 | >10 |
| CCn1ncc(-c2nc3c(NC4CCc5nnc(C6CC6)n5C4)ncnc3n2CC)c1C (racemic) [Compound 1-17, (S and R)-N-(3-cyclopropyl-5,6,7,8-tetrahydro[1,2,4]triazolo[4,3-a]pyridin-6-yl)-9-ethyl-8-(1-ethyl-5-methyl-1H-pyrazol-4-yl)-9H-purin-6-amine] | < 1 | >10 |
| CCn1c(-c2ccc(C(F)(F)F)cc2)nc2c(NC3CCc4nnc(C(C)C)n4C3)ncnc21 (single isomer, unassigned) [Compound 1-20, (S or R)-9-ethyl-N-[(6S)-3-(1-methylethyl)-5,6,7,8-tetrahydro[1,2,4]triazolo[4,3-a]pyridin-6-yl]-8-[4-(trifluoromethyl)phenyl]-9H-purin-6-amine] | < 1 | >10 |
| CCn1c(-c2cnc(OC)c(F)c2)nc2c(NC3CCc4nnc(C(C)C)n4C3)ncnc21 (single isomer, unassigned) [Compound 1-21, (S or R)-9-ethyl-8-(5-fluoro-6-methoxypyridin-3-yl)-N-[3-(1-methylethyl)-5,6,7,8-tetrahydro[1,2,4]triazolo[4,3-a]pyridin-6-yl]-9H-purin-6-amine] | < 1 | >10 |
| CCn1c(C(=O)NCC(F)(F)F)nc2c(NC3CCc4nnc(C(C)C)n4C3)ncnc21 (racemic) [Compound 1-37, (S and R)-9-ethyl-6-{[3-(1-methylethyl)-5,6,7,8-tetrahydro[1,2,4]triazolo[4,3-a]pyridin-6-yl]amino}-N-(2,2,2-trifluoroethyl)-9H-purine-8-carboxamide] | 12 | >10 |
| CCn1c(-c2ccc(C(F)(F)F)nc2)nc2c(NC3CCc4nnc(C5CC5)n4C3)ncnc21 (racemic) [Compound 1-11, (S and R)-N-(3-cyclopropyl-5,6,7,8-tetrahydro[1,2,4]triazolo[4,3-a]pyridin-6-yl)-9-ethyl-8-[6-(trifluoromethyl)pyridin-3-yl]-9H-purin-6-amine] | 4.1 | >10 |
| CCn1c(C(F)F)nc2c(NC3CCc4nnc(C(C)C)n4C3)ncnc21 (single isomer, unassigned) [Compound 1-9, (S or R)-8-(difluoromethyl)-9-ethyl-N-[3-(1-methylethyl)-5,6,7,8-tetrahydro[1,2,4]triazolo[4,3-a]pyridin-6-yl]-9H-purin-6-amine] | 16 | >10 |
| CCc1nnc2n1CC(Nc1ncnc3c1nc(-c1cnc(C)nc1)n3CC)CC2 (single isomer, unassigned) [Compound 1-7, (S or R)-9-ethyl-N-[3-ethyl-5,6,7,8-tctrahydro[1,2,4]triazolo[4,3-a]pyridin-6-yl]-8-(2-methylpyrimidin-5-yl)-9H-purin-6-amine] | 13 | >10 |

Further lines, results first:

| IC50 (PI3Kdelta) [nM] | Selectivity versus PI3Kalpha (PI3Kalpha) | SMILES |
| --- | --- | --- |
| 11 | >10 | CCn1c(-c2cnc(C)nc2)nc2c(NC3CCc4cnc(C5CC5)n4C3)ncnc21 (single isomer, unassigned) [Compound 3-1, (S or R)-N-[3-cyclopropyl-5,6,7,8-tetrahydroimidazo[1,5-a]pyridin-6-yl]-9-ethyl-8-(2-methylpyrimidin-5-yl)-9H-purin-6-amine] |
| 30 | >10 | CCn1c(-c2cnc(C)nc2)nc2c(NC3CCc4c(c(C(C)C)nn4C(=O)c4ccccc4)C3)ncnc21 (racemic) [Compound 2-13, (S and R)-9-ethyl-N-[3-(1-methylethyl)-1-(phenylcarbonyl)-4,5,6,7-tetrahydro-1H-indazol-5-yl]-8-(2-methylpyrimidin-5-yl)-9H-purin-6-amine] |
| 4.1 | >10 | CCn1c(-c2cnc(C)nc2)nc2c(NC3(C)CCc4[nH]nc(C(C)C)c4C3)ncnc21 (single isomer, unassigned) [Compound 2-5, (S or R)-9-ethyl-N-[5-methyl-3-(1-methylethyl)-4,5,6,7-tetrahydro-1H-indazol-5-yl]-8-(2-methylpyrimidin-5-yl)-9H-purin-6-amine] |
| 7.4 | >10 | CCn1c(-c2cnc(C)nc2)nc2c(NC3CCc4c(c(C(C)C)nn4CCN(C)C)C3)ncnc21 (racemic) [Compound 2-3, (S and R)-N-{1-[2-(dimethylamino)ethyl]-3-(1-methylehyl)-4,5,6,7-tetrahydro-1H-indazol-5-yl}-9-ethyl-8-(2-methylpyrimidin-5-yl)-9H-purin-6-amine] |
| 60 | >10 | CCn1c(C(F)F)nc2c(NC3CCc4[nH]nc(C(C)C)c4C3)ncnc21 (racemic) [Compound 2-9, (S and R)-8-(difluoromethyl)-9-ethyl-N-[3-(1-methylethyl)-4,5,6,7-tetrahydro-1H-indazol-5-yl]-9H-purin-6-amine] |
| 290 | >10 | CCn1c(-c2cnc(C)nc2)nc2c(NC3CCc4ncc(C5CC5)n4C3)ncnc21 (single isomer, unassigned) [Compound 4-2, (S or R)-N-(3-cyclopropyl-5,6,7,8-tetrahydroimidazo[1,2-a]pyridin-6-yl)-9-ethyl-8-(2-methylpyrimidin-5-yl)-9H-purin-6-amine] |
| 1.7 | >10 | CCn1c(-c2cnc(C)nc2)nc2c(NC3Cc4c(ncn4C(C)C)CC3C)ncnc21 (single isomer, unassigned) [Compound 5-19, 9-ethyl-N-[cis-5-methyl-1-(1-methylethyl)-4,5,6,7-tetrahydro-1H-benzimidazol-6-yl]-8-(2-methylpyrimidin-5-yl)-9H-purin-6-amine] |
| 19 | >10 | CCn1c(-c2cnc(C)nc2)nc2c(NC3CCc4nc(C)n(C5CC5)c4C3)ncnc21 (single isomer, unassigned) [Compound 5-7, (S or R)-N-(1-cyclopropyl-2-methyl-4,5,6,7-tetrahydro-1H-benzimidazol-6-yl)-9-ethyl-8-(2-methylpyrimidin-5-yl)-9H-purin-6-amine] |
| 6.1 | >10 | CCn1c(-c2cnc(C)nc2)nc2c(NC3Cc4cnn(Cc5ccccc5)c4C3)ncnc21 (racemic) [Compound 2-26, (S and R)-N-(1-benzyl-1,4,5,6-tetrahydrocyclopenta[c]pyrazol-5-yl)-9-ethyl-8-(2-methylpyrimidin-5-yl)-9H-purin-6-amine] |
| 2.8 | >10 | CCn1c(-c2cnc(C)nc2)nc2c(NC3CCc4ncc(C(C)C)n4C3)ncnc21 (single isomer, unassigned) [Compound 4-3, (S or R)-9-ethyl-N-[3-(1-methylethyl)-5,6,7,8-tetrahydroimidazo[1,2-a]pyridin-6-yl]-8-(2-methylpyrimidin-5-yl)-9H-purin-6-amine] |
| 5.1 | >10 | CCn1c(-c2ccc(C(F)(F)F)cc2)nc2c(NC3CCc4ncn(C5CC5)c4C3)ncnc21 (single isomer, unassigned) [Compound 5-5, (S or R)-N-(1-cyclopropyl-4,5,6,7-tetrahydro-1H-benzimidazol-6-yl)-9-ethyl-8-[4-(trifluoromethyl)phenyl]-9H-purin-6-amine] |
| 5.2 | >10 | CCn1c(-c2cnc(C)nc2)nc2c(NC3CCc4cnc(C(C)C)n4C3)ncnc21 (single isomer, unassigned) [Compound 3-2, (S or R)-9-ethyl-N-[3-(1-methylethyl)-5,6,7,8-tetrahydroimidazo[1,5-a]pyridin-6-yl)-8-(2-methylpyrimidin-5-yl)-9H-purin-6-amine] |
| 25 | >10 | CCc1nn(CC)c2c1CC(Oc1ncnc3c1nc(-c1cnc(C)nc1)n3CC)CC2 (racemic) [Compound 2-27, (S and R)-6-[(1,3-diethyl-4,5,6,7-tetrahydro-1H-indazol-5-yl)oxy]-9-ethyl-8-(2-methylpyrimidin-5-yl)-9H-purine] |
| 16 | >10 | CCn1c(-c2cnc(C)nc2)nc2c(NC3CCc4c(c(C(C)C)nn4C(=O)NC(C)(C)C)C3)ncnc21 (racemic) [Compound 2-21, (S and R)-N-tert-butyl-5-{[9-ethyl-8-(2-methylpyrimidin-5-yl)-9H-purin-6-yl]amino}-3-(1-methylethyl)-4,5,6,7-tetrahydro-1H-indazole-1-carboxamide] |
